Assay results reported in patent US20240158446A1, “CYCLIC COMPOUND HAVING SELECTIVE INHIBITORY ACTION ON KRAS OVER HRAS AND NRAS” (CHUGAI SEIYAKU KABUSHIKI KAISHA, priority 2021, published 2024).

Assays:
[1] = molecular target: GDP-bound NRAS wild-type protein (Homo sapiens, UniProt P01111); test: Binding to NRAS by surface plasmon resonance (SPR), Single Cycle Kinetics; details: SPR; GDP-bound NRAS wild-type protein vs GDP-bound KRAS wild-type protein; KD ratio class
[2] = molecular target: GDP-bound HRAS wild-type protein (Homo sapiens, UniProt P01112); test: Binding to HRAS by surface plasmon resonance (SPR), Single Cycle Kinetics; details: SPR; GDP-bound HRAS wild-type protein vs GDP-bound KRAS wild-type protein; KD ratio class
[3] = tested on: human lung cancer strain NCI-H441;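 note: cell proliferation inhibition after four days measured by CellTiter-Glo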
[4] = molecular target: GDP-bound KRAS wild-type protein (Homo sapiens, UniProt P01116); test: Binding to KRAS by surface plasmon resonance (SPR), Single Cycle Kinetics; details: SPR, Single Cycle Kinetics, 1:1 binding model; GDP-bound KRAS wild-type protein; read-out: KRAS KD
GDP-bound KRAS wild-type protein, sequence (P01116 whole entry): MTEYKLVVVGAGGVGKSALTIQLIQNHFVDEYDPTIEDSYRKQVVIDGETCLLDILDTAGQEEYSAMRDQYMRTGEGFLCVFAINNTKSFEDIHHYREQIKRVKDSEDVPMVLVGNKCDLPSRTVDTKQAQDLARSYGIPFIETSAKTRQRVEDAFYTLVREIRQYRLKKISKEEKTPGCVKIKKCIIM

GDP-bound NRAS wild-type protein, sequence (P01111 whole entry): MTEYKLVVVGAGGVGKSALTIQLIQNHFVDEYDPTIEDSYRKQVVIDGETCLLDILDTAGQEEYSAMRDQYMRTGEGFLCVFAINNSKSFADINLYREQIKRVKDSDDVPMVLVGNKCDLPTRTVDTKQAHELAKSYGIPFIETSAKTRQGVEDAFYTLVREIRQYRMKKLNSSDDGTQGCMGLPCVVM
GDP-bound HRAS wild-type protein, sequence (P01112 whole entry): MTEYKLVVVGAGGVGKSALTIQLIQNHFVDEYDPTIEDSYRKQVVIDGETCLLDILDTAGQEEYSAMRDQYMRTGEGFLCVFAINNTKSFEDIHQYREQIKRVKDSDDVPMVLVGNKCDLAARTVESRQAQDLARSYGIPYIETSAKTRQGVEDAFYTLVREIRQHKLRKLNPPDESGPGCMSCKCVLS

SMILES	NRAS/KRAS (ratio of KD value for NRAS to KD value for KRAS) [1]	HRAS/KRAS (ratio of KD value for HRAS to KD value for KRAS) [2]	IC50 [3] [nM]	Kd [4] [nM]
C=CC[C@H]1C(=O)N[C@@H]([C@@H](C)CC)C(=O)N(C)CC(=O)N(C)[C@H]2C/C=C\CCN(C2=O)[C@@H](CC2CCCCC2)C(=O)N(C)CC(=O)N[C@@H](CCc2cc(F)c(C(F)(F)F)c(F)c2)C(=O)N2C[C@H](OCC)C[C@H]2C(=O)NC2(CCC2)C(=O)N(C)[C@@H](C2CCCC2)C(=O)N(C)[C@H](C(=O)N(C)C)CC(=O)N1C [PP1468, (2S,8S,12R,14S,20S,23S,27S,30S,36S,38Z)-27-allyl-2-(cyclohexylmethyl)-20-cyclopentyl-8-[2-[3,5-difluoro-4-(trifluoromethyl)phenyl]ethyl]-12-ethoxy-N,N,4,19,22,26,32,35-octamethyl-30-[(1S)-1-methylpropyl]-3,6,9,15,18,21,25,28,31,34,42-undecaoxo-spiro[1,4,7,10,16,19,22,26,29,32,35-undecazatricyclo[34.5.1.0^10,14]dotetracont-38-ene-17,1′-cyclobutane]-23-carboxamide]	A (a compound having 10 or more and less than 20 is denoted as A)	A (a compound having 10 or more and less than 20 is denoted as A)	9.5	0.12
CCO[C@@H]1C[C@H]2C(=O)NC3(CCC3)C(=O)N(C)[C@@H](C3CCCC3)C(=O)N(C)[C@H](C(=O)N(C)C)CC(=O)N(C)[C@@H](CC3CCC3)C(=O)N[C@@H]([C@@H](C)CC)C(=O)N(C)CC(=O)N(C)[C@H]3C/C=C\CCN(C3=O)[C@@H](CC3CCCCC3)C(=O)N(C)CC(=O)N[C@@H](CCc3cc(F)c(C(F)(F)F)c(F)c3)C(=O)N2C1 [PP1469]	A (a compound having 10 or more and less than 20 is denoted as A)	A (a compound having 10 or more and less than 20 is denoted as A)	22.2	0.18
CCO[C@@H]1C[C@H]2C(=O)NC3(CCCC3)C(=O)N(C)[C@@H](C3CCCC3)C(=O)N(C)[C@H](C(=O)N(C)C)CC(=O)N(C)[C@@H](C)C(=O)N[C@@H]([C@@H](C)CC)C(=O)N(C)CC(=O)N(C)[C@H]3C/C=C\CCN(C3=O)[C@@H](CC3CCCCC3)C(=O)N(C)CC(=O)N[C@@H](CCc3cc(F)c(C(F)(F)F)c(F)c3)C(=O)N2C1 [PP1470]	A (a compound having 10 or more and less than 20 is denoted as A)	A (a compound having 10 or more and less than 20 is denoted as A)	111	0.22
CC[C@H](C)[C@@H]1NC(=O)[C@H](CC)N(C)C(=O)C[C@@H](C(=O)N(C)C)N(C)C(=O)[C@H](C2CCCC2)N(C)C(=O)C2(CCC2)NC(=O)[C@@H]2C[C@H](C)CN2C(=O)[C@H](CCc2cc(F)c(C(F)(F)F)c(F)c2)NC(=O)CN(C)C(=O)[C@H](CC2CCCCC2)N2CC/C=C\C[C@@H](C2=O)N(C)C(=O)CN(C)C1=O [PP1471]	A (a compound having 10 or more and less than 20 is denoted as A)	A (a compound having 10 or more and less than 20 is denoted as A)	48.2	0.25
CCO[C@@H]1C[C@H]2C(=O)NC3(CCC3)C(=O)N(C)[C@@H](C3CCCC3)C(=O)N(C)[C@H](C(=O)N(C)C)CC(=O)N(C)[C@@H](CC3CCCC3)C(=O)N[C@@H]([C@@H](C)CC)C(=O)N(C)CC(=O)N(C)[C@H]3C/C=C\CCN(C3=O)[C@@H](CC3CCCCC3)C(=O)N(C)CC(=O)N[C@@H](CCc3cc(F)c(C(F)(F)F)c(F)c3)C(=O)N2C1 [PP1472, (2S,8S,12R,14S,20S,23S,27S,30S,36S,38Z)-2-(cyclohexylmethyl)-20-cyclopentyl-27-(cyclopentylmethyl)-8-[2-[3,5-difluoro-4-(trifluoromethyl)phenyl]ethyl]-12-ethoxy-N,N,4,19,22,26,32,35-octamethyl-30-[(1S)-1-methylpropyl]-3,6,9,15,18,21,25,28,31,34,42-undecaoxo-spiro[1,4,7,10,16,19,22,26,29,32,35-undecazatricyclo[34.5.1.0^10,14]dotetracont-38-ene-17,1′-cyclobutane]-23-carboxamide]	A (a compound having 10 or more and less than 20 is denoted as A)	A (a compound having 10 or more and less than 20 is denoted as A)	37.1	0.14
CCO[C@@H]1C[C@H]2C(=O)NC3(CCCC3)C(=O)N(C)[C@@H](C3CCCC3)C(=O)N(C)[C@H](C(=O)N(C)C)CC(=O)N(C)[C@@H](CC(C)C)C(=O)N[C@@H]([C@@H](C)CC)C(=O)N(C)CC(=O)N(C)[C@H]3C/C=C\CCN(C3=O)[C@@H](CC3CCCCC3)C(=O)N(C)CC(=O)N[C@@H](CCc3cc(F)c(C(F)(F)F)c(F)c3)C(=O)N2C1 [PP1473]	A (a compound having 10 or more and less than 20 is denoted as A)	A (a compound having 10 or more and less than 20 is denoted as A)	36.6	0.19
CCO[C@@H]1C[C@H]2C(=O)NC3(CCC3)C(=O)N(C)[C@@H](C3CCCC3)C(=O)N(C)[C@H](C(=O)N(C)C)CC(=O)N(C)[C@@H](CC(C)(C)C)C(=O)N[C@@H]([C@@H](C)CC)C(=O)N(C)CC(=O)N(C)[C@H]3C/C=C\CCN(C3=O)[C@@H](CC3CCCCC3)C(=O)N(C)CC(=O)N[C@@H](CCc3cc(F)c(C(F)(F)F)c(F)c3)C(=O)N2C1 [PP1474]	A (a compound having 10 or more and less than 20 is denoted as A)	A (a compound having 10 or more and less than 20 is denoted as A)	48.2	0.23
CC[C@H](C)[C@@H]1NC(=O)[C@H](CC)N(C)C(=O)C[C@@H](C(=O)N(C)C)N(C)C(=O)[C@H](C2CCCC2)N(C)C(=O)C2(CCC2)NC(=O)[C@@H]2CCCN2C(=O)[C@H](CCc2cc(F)c(C(F)(F)F)c(F)c2)NC(=O)CN(C)C(=O)[C@H](CC2CCCCC2)N2CC/C=C\C[C@@H](C2=O)N(C)C(=O)CN(C)C1=O [PP1475]	A (a compound having 10 or more and less than 20 is denoted as A)	A (a compound having 10 or more and less than 20 is denoted as A)	48.9	0.55
CCO[C@@H]1C[C@H]2C(=O)NC3(CCC3)C(=O)N(C)[C@@H](C3CCCC3)C(=O)N(C)[C@H](C(=O)N(C)C)CC(=O)N(C)[C@@H](CC3CC3)C(=O)N[C@@H]([C@@H](C)CC)C(=O)N(C)CC(=O)N(C)[C@H]3C/C=C\CCN(C3=O)[C@@H](Cc3ccc(F)cc3C)C(=O)N(C)CC(=O)N[C@@H](CCc3ccc(Cl)c(Cl)c3)C(=O)N2C1 [PP1476]	A (a compound having 10 or more and less than 20 is denoted as A)	B (a compound having 3 or more and less than 10 is denoted as B)	216	1
CCO[C@@H]1C[C@H]2C(=O)NC3(CCC3)C(=O)N(C)[C@@H](C3CCCC3)C(=O)N(C)[C@H](C(=O)N(C)C)CC(=O)N(C)[C@@H](CC3CC3)C(=O)N[C@@H]([C@@H](C)CC)C(=O)N(C)CC(=O)N(C)[C@H]3C/C=C\CCN(C3=O)[C@@H](Cc3ccc(F)cc3C)C(=O)N(C)CC(=O)N[C@@H](CCc3cc(F)c(Cl)c(F)c3)C(=O)N2C1 [PP1477]	A (a compound having 10 or more and less than 20 is denoted as A)	B (a compound having 3 or more and less than 10 is denoted as B)	309	1.4
CCO[C@@H]1C[C@H]2C(=O)NC3(CCC3)C(=O)N(C)[C@@H](C3CCCC3)C(=O)N(C)[C@H](C(=O)N(C)C)CC(=O)N(C)[C@@H](CC3CC3)C(=O)N[C@@H]([C@@H](C)CC)C(=O)N(C)CC(=O)N(C)[C@H]3C/C=C\CCN(C3=O)[C@@H](Cc3ccc(F)cc3)C(=O)N(C)CC(=O)N[C@@H](CCc3ccc(Cl)c(Cl)c3)C(=O)N2C1 [PP1478]	A (a compound having 10 or more and less than 20 is denoted as A)	A (a compound having 10 or more and less than 20 is denoted as A)	102	0.34
CCO[C@@H]1C[C@H]2C(=O)NC3(CCC3)C(=O)N(C)[C@@H](C3CCCC3)C(=O)N(C)[C@H](C(=O)N(C)C)CC(=O)N(C)[C@@H](CC3CC3)C(=O)N[C@@H]([C@@H](C)CC)C(=O)N(C)CC(=O)N(C)[C@H]3C/C=C\CCN(C3=O)[C@@H](Cc3ccc(F)cc3)C(=O)N(C)CC(=O)N[C@@H](CCc3cc(F)c(Cl)c(F)c3)C(=O)N2C1 [PP1479]	A (a compound having 10 or more and less than 20 is denoted as A)	B (a compound having 3 or more and less than 10 is denoted as B)	140	0.49
CCO[C@@H]1C[C@H]2C(=O)NC3(CCC3)C(=O)N(C)[C@@H](C3CCCC3)C(=O)N(C)[C@H](C(=O)N(C)C)CC(=O)N(C)[C@@H](CC(C)C)C(=O)N[C@@H]([C@@H](C)CC)C(=O)N(C)CC(=O)N(C)[C@H]3C/C=C\CCN(C3=O)[C@@H](Cc3ccc(F)cc3C)C(=O)N(C)CC(=O)N[C@@H](CCc3ccc(Cl)c(Cl)c3)C(=O)N2C1 [PP1480]	A (a compound having 10 or more and less than 20 is denoted as A)	B (a compound having 3 or more and less than 10 is denoted as B)	85.8	0.92
